Measured values: patent US20010046963A1, “Novel use of flavones” (priority 2000, published 2001)

Experiments:
COX-2 mRNA = test: Semi-quantitative RT-PCR determination of COX-2 mRNA levels in HT-29 cells; assay type: cell-based; settings: for COX-2/GAPDH [AUC]: HT-29 cells, 150 μM flavone, n = 4
Protocol: (§1) HT-29 cells (passage 106) were provided by ATCC and used between passage 150 and 200. Cells were cultured and passaged in RPMI-1640 supplemented with […] and 2 mM glutamine (all from GIBCO, Eggenstein, Germany). Antibiotics added were 100 U/ml penicillin and 100 μg/ml streptomycin (GIBCO). The cultures were maintained in a humidified atmosphere of 95% air and 5% CO2 at 37° C. Cells were passaged at preconfluent densities by the use of a solution containing 0.05% trypsin and 0.5 mM EDTA (GIBCO).
(§2) RNA from HT-29 cells was isolated at the times indicated in table 5 according to the method described by Chomczynski and Sacchi Anal. Biochem. 162 (1987) 156 with slight modifications. Reverse transcription was done with 5 μg of isolated RNA. First strand cDNA synthesis was accomplished with an oligo-(dT)15 primer (MBI Fermentas). Amplification of sequence specific fragments (Taq Polymerase was from Sigma) was performed with 30 cycles (95° C. denaturation for 1 min, 55° C. hybridization for 2 min, 72° C. extensions for 2 min; Personal Cycler, Biometra, Göttingen, Germany). RT-PCR products were separated on a 1% agrose gel and visualized by ethidium bromide. The amount of first strand used to amplify specific sequences was derived from the linear range of amplification. The amplified GAP-DH sequence was used as a constitutively expressed control. The amplivied products were photographed and the intensity of the bands was analyzed by the SigmaGel software. No products were obtained for all genes without reverse transcription […]. A λ-DNA/EcoRI+HindIII marker (MBI Fermentas) was used in all PCR experiments as a size control of the amplified products. Amplified cDNA sequences (primers were custom synthesized by Eurogentec, Seraing, Belgium) were GAP-DH: bp 558-1010; COX-2: bp 1366-1870, NFχB:bp 2832-3401.
(§3) That this effect on gene expression occurred selectively was shown by unaltered mRNA levels of the tumor suppressor p53.
(§4) Semi-quantitative determination of COX-2 and NFχB mRNA levels in HT-29 cells by use of RT-PCR (n=4).

NFχB mRNA = test: Semi-quantitative RT-PCR determination of NFχB mRNA levels in HT-29 cells; assay type: cell-based; settings: for NFχB/GAPDH [AUC]: 150 μM flavone, n = 4
Protocol: as §1, §2, §3, §4

**Q.** How did the “COX-2 transcript levels (in words)” value (COX-2 mRNA; HT-29 cells exposed to flavone for 48 h) turn out when `O=c1cc(-c2ccccc2)oc2ccccc12` [flavone, Flavone] was run?
**A.** Its value is “diminished in its transcript levels drastically”.

**Q.** And the “COX-2/GAPDH [AUC]” value (COX-2 mRNA; incubation time 3 h)?
**A.** Its value is 0.69 AUC.

**Q.** What about the “COX-2/GAPDH [AUC]” value (COX-2 mRNA; incubation time 8 h) of the same compound?
**A.** The value was 0.35 AUC.

**Q.** And the “NFχB/GAPDH [AUC]” value (NFχB mRNA; incubation time 3 h)?
**A.** The value was 1.1 AUC.

**Q.** What about the “NFχB/GAPDH [AUC]” value (NFχB mRNA; incubation time 8 h) of the same compound?
**A.** Its value is 1.7 AUC.

**Q.** What about the “mRNA of NFχB (in words)” value (NFχB mRNA; flavone treatment) of the same compound?
**A.** Its value is “reduced dramatically”.
